Legend:
[1] = test system: contracting clusters of cells; experiment: Functional receptors: contractile activity of contracting areas after pharmacological agents (method of Norström et al. 2006); type: cell-based, human; conditions: agents administered to contracting areas; method and Table 1 of Norström et al. 2006
hBS cells (SA002) = experiment: Yield of beating CMLC from differentiating hBS cells, counted visually; type: cell-based, human; conditions: for Yield of beating CMLC compared to control cultures not receiving additional factors: 5 μM pre-plating in addition to Activin A 10 ng/ml and bFGF 12 ng/ml, day 7 after plating
Description: Spontaneously contracting cells were derived from undifferentiated hBS cells cultured on MEF cells (Heins et al 2004 Stem Cells). The cell lines used for this experiment could be the hBS cell line SA002, SA121, SA001, SA002.5, SA461 (Cellartis AB, Goteborg, Sweden, http://www.cellartis.com) and they can be propagated as described Heins et al. 2004. These cell lines are listed in the NIH stem cell registry and the UK Stem Cell bank. The hBS cells were detached from the feeder layer by incubation with collagenase IV (200 U/ml), for 10-15 minutes at 37° C. The cell suspension was transferred to a 15 ml tube, and after the cells had sedimented, the supernatant was removed. The colonies were resuspended in Knock Out DMEM supplemented with 20% FBS, 1% penicillin-streptomycin, 1% Glutamax, 0.5 mmol/l β-mercaptoethanol and 1% non-essential amino acids (all from Invitrogen, Carlsbad, Calif.) and dissociated mechanically into small aggregates of undifferentiated cells (0.2-0.4 mm) using a pipette. This cell suspension was distributed (200 μl/well) into a 96-well v-bottom plate (Corning Incorporated, NY, USA) at a concentration of approximately 4-6 colonies per well and centrifuged for 5 min at 400×g. The plate was then incubated at 37° C. for 3-8 days. The 3D structures that formed were then transferred to gelatine coated dishes containing culture medium (same as above). After a couple of days (normally 1-4) of culture, spontaneously contracting areas with cluster of contracting cells (CMLC) occurred and could be visually identified using a light microscope. Medium was changed every second to third day. New spontaneously beating areas continued to appear for up to 20 days post-plating. The clusters are isolated by mechanical dissection under visual inspection using a light microscope from the 3D-structures and subjected to further characterization. […] These were then manually isolated from the surrounding cells and plated onto laminin coated glass. After three days in culture, the clusters were fixed and stained for nuclei and the protein cardiac troponin 1, which is known to be specific for cardiac tissue. These clusters were then examined with confocal microscopy.
CMLC were derived from undifferentiated hBS cells (cell line SA002, LOTAL002, passage 21, 22, 44 and 51) essentially as described in Example 1. […]
The number of contracting CMLC was visually determined at day 6 or 7 after plating of formed 3D structures. […] The effect of the treatment on beating area characteristics was determined in terms of distribution in beating frequency, length, width, calculated area and structure in two experiments; one using plating medium with 20% FBS and one with plating medium containing 2% FBS. […]

CMLC clusters = experiment: Transmembrane action potential (TAP) microelectrode recordings in beating CMLC; type: cell-based, human
Description: Transmembrane action potentials (TAP) were recorded by using a microelectrode filled with 3 M KCl (resistance 10 to 20 MΩ) connected via an Ag/AgCl junction to a high impedance amplifier (Intracellular Electrometer IE-210, Warner Instrument Corporation). Sharp microelectrodes were prepared using a glass, and a micromanipulator was used to lower the electrode into the bath and enter the cluster. The same impalement was kept for as long as possible. […] Steady-state recordings of action potentials at spontaneous frequency or during electric stimulation of 1-4 Hz were made. All calculations were made on the average of 10 (consecutive) action potentials. The bath was continuously perfused with Tyrode's solution consisting of (in mmol/L) 130 NaCl, 4 KCl, 0.5 MgSO4.7H20, 1.8 NaH2PO4xH2O, 18 NaHCO3, 5.5 glucose, 1.8 CaCl2 and kept at 37° C.
Electrical stimulation of the CMLC was done using field stimulation by means of a mobile electrode.
Change in APD was calculated and used to determine prolongation and assess triangularization.
To investigate the role of the funny current (If) in spontaneously contracting CMLC, 10 μM zatebradine was administered.

[2] = test system: spontaneously beating CMLC; experiment: Visually registered contraction rate of spontaneously beating CMLC; type: cell-based, human; conditions: 5 μM
Description: FIG. 28. The effect of Zatebradine on the beating frequency of contracting CMLC derived from hBS cells. […] The change in beating frequency was calculated by visually registering the contraction rate before and after Zatebradine administration. Values are expressed as beats per minute±SEM, n=32, ***=p<0.001. Statistical significance was calculated using paired t-test. […] The mRNA expression of HCN4 and Troponin T2 was measured using real-time RT quantitative PCR and related to the expression of the endogenous control CREBBP. Values are expressed as relative gene expression as compared to a reference sample set to 100% (n=32). Statistical analysis was performed using linear regression analysis.
CMLC were derived from undifferentiated hBS cells essentially as described in Example 1 using cell line SA002. Zatebradine is a substance known to block so called funny channels, e.i. hyperpolarization-activated, cyclic nucleotide-gated (HCN) channels 1-4, which are involved in the regulation of cardiomyocyte contraction and cardiac rate. In order to investigate the effect of Zatebradine on CMLC derived from hBS cells and to correlate this effect to age and gene expression, Zatebradine was administered at a concentration of 5 μM to 32 spontaneously beating clusters of different ages. […] Gene expression was quantified using real-time RT quantitative PCR. […]

COc1ccc(CCN2CCC(Nc3nc4ccccc4n3Cc3ccc(F)cc3)CC2)cc1 [Astemizol]
Delayed repolarisation of the cardiac field potentials (hERG channel in CMLC; cumulative 0, 100 pM, 1 nM, 10 nM, 100 nM, 1000 nM): selective block and sustained prolongation of the repolarizing component at low nanomolar concentrations | Delayed repolarization of the cardiac field potential (hERG channel in CMLC; hES-CMC cluster on MEA, cumulative 0, 1 nM, 10 nM, 100 nM, 1 μM, 10 μM, FIG. 30): selective block and sustained prolongation of the repolarizing component at nanomolar concentrations

NC[C@H](O)c1ccc(O)c(O)c1 [Noradrenaline]
Effect on contractile activity / contraction frequency [1]: stimulates contractile activity normally in a concentration-response manner

CC(COc1ccccc1)N(CCCl)Cc1ccccc1 (centres unmarked) [phenoxybenzamine]
Effect on contractile activity / contraction frequency [1]: reduce the contraction frequency

CNCC(O)c1ccc(O)c(O)c1 (centres unmarked) [Adrenaline]
Effect on contractile activity / contraction frequency [1]: stimulatory effect is registered within minutes

Fc1ccc(-c2nc3n(c2-c2ccncc2)CCS3)cc1 [SKF-86002]
Yield of beating CMLC compared to control cultures not receiving additional factors (hBS cells (SA002)): ~3 times

Cc1cccc(CCN2CCC(C(=O)c3ccc(NS(C)(=O)=O)cc3)CC2)n1 [E-4031]
Action potential prolongation (CMLC clusters; 0.5-1 μM E-4031, all CMLC phenotypes): concentration dependent action potential prolongation in all CMLC phenotypes | Average change in percent of APD90 (CMLC clusters; atrial-like CMLC, 0.5 μM E-4031, spontaneous f): 27.27 ± 7.61 (7) % | Average change in percent of APD90 (CMLC clusters; atrial-like CMLC, 1 μM E-4031, spontaneous f): 70.08 ± 25.91 (2) % | Average change in percent of APD90 (CMLC clusters; nodal-like CMLC, 0.5 μM E-4031, spontaneous f): 43.16 ± 21.00 (4) % | Average change in percent of APD90 (CMLC clusters; ventricle-like CMLC, 0.5 μM E-4031, 1 Hz): 34.89 ± 9.83 (4) % | Average change in percent of APD90 (CMLC clusters; ventricle-like CMLC, 0.5 μM E-4031, 2 Hz): 27.92 ± 9.23 (2) % | Average change in percent of APD90 (CMLC clusters; ventricle-like CMLC, 0.5 μM E-4031, spontaneous f): 16.67 ± 10.64 (5) % | Average change in percent of APD90 (CMLC clusters; ventricle-like CMLC, 1 μM E-4031, 1 Hz): 59.33 ± 31.28 (2) % | Average change in percent of APD90 (CMLC clusters; ventricle-like CMLC, 1 μM E-4031, 2 Hz): 38.14 ± 36.85 (3) %

COc1ccc(CCN(C)CCCN2CCc3cc(OC)c(OC)cc3CC2=O)cc1OC [Zatebradine]
Effect on action potential duration (CMLC clusters; 10 μM Zatebradine, FIG. 21): increased duration | Effect on beating frequency (CMLC clusters; 10 μM Zatebradine, FIG. 21): slowed beating frequency | Beating of some clusters [2]: completely blocked | Decrease of the beating frequency of CMLC, on average ([2]; 32 spontaneously beating clusters of different ages): about 50%

CNC[C@H](O)c1cccc(O)c1 [Phenylephrine]
Effect on contractile activity / contraction frequency [1]: stimulated in a dose-dependent manner

CC(C)NCC(O)COc1ccc(CC(N)=O)cc1 (centres unmarked) [atenolol]
Effect on contractile activity / contraction frequency [1]: stimulatory effect is reduced within minutes

CC(CCc1ccccc1)NCC(O)c1ccc(O)c(C(N)=O)c1 (centres unmarked) [labetolol]
Effect on contractile activity / contraction frequency [1]: reduction in the stimulation of contraction frequency exerted by adrenaline

COc1cc(N)c(Cl)cc1C(=O)NC1CCN(CCCOc2ccc(F)cc2)CC1OC (centres unmarked) [Cisapride]
Field action potential duration (indicator of QT prolongation) (hERG channel in CMLC; increasing drug concentrations, FIGS. 5c and 5d): dose dependent prolongation of the action potential

Cn1cc(C2=C(c3ccc(Cl)cc3Cl)C(=O)NC2=O)c2ccccc21 [SB 216763]
Yield of beating CMLC compared to control cultures not receiving additional factors (hBS cells (SA002)): ~3 times

LIF: protein growth factor supplemented at 1000 U/ml post-plating
Yield of beating CMLC (hBS cells (SA002); Activin A and bFGF pre-plating, LIF 1000 U/ml for 4 days post-plating, counted day 7 and day 14): further increased the generation of beating CMLC | Improvement of yield compared to controls that only receive medium (hBS cells (SA002); medium containing Activin A and/or bFGF supplemented with LIF post-plating, FIG. 14): ~2 fold

— patent US20100278787A1, “CARDIOMYOCYTE-LIKE CELL CLUSTERS DERIVED FROM HBS CELLS” (Cellartis AB, priority 2007, published 2010)
